Results taken from patent US6706663B2, “Herbicidal 3-heterocyclic substituted benzisothiazole and benzisoxazole compounds” (Wyeth, priority 2000, dated 2004).

What was measured:
ZEAMX (Corn, Field) = experiment: Postemergence herbicidal evaluation; format: in vivo, Zea mays, L.; conditions: postemergence
How it was run: (§1)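 Seedlings grown about two weeks in flats, sprayed, then kept under standard greenhouse care. Rated visually 4–5 weeks after treatment on a 0–9 scale (stand, vigour, malformation, size, chlorosis, overall appearance) relative to untreated control; repeat tests averaged.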

[1] = tested on: AMBEL (Ambrosia artemisifolia); experiment: Preemergence herbicidal evaluation; format: in vivo, L.; conditions: rated 4-5 weeks after treatment
How it was run: (§2)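 Applied before emergence as an aqueous acetone spray over seeded soil. Read-out: 0–9 visual rating covering plant stand, vigor, size, chlorosis, malformation and overall appearance compared with control, taken 4–5 weeks after spraying.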

[2] = tested on: CHEAL (Chenopodium album); experiment: Preemergence herbicidal evaluation; format: in vivo, L.; conditions: rated 4-5 weeks after treatment
How it was run: as §2

[3] = tested on: CASOB (Cassia obtusifolia); experiment: Preemergence herbicidal evaluation; format: in vivo, L.; conditions: rated 4-5 weeks after treatment
How it was run: as §2

[4] = tested on: AMBEL (Ambrosia artemisifolia); experiment: Postemergence herbicidal evaluation; format: in vivo, L.; conditions: postemergence
How it was run: as §1

[5] = tested on: CHEAL (Chenopodium album); experiment: Postemergence herbicidal evaluation; format: in vivo, L.; conditions: postemergence
How it was run: as §1

[6] = tested on: CASOB (Cassia obtusifolia); experiment: Postemergence herbicidal evaluation; format: in vivo, L.; conditions: postemergence
How it was run: as §1

ORYSAT (Rice, Tebonnet) [7] = experiment: Postemergence herbicidal evaluation; format: in vivo, Oryza sativa, (L.) Tebonnet; conditions: postemergence
How it was run: as §1

[8] = tested on: IPOHE (Ipomoea hederacea); experiment: Preemergence herbicidal evaluation; format: in vivo, (L.) Jacq.; conditions: rated 4-5 weeks after treatment
[9] = tested on: SAGPY (Sagittaria pygmaea); experiment: Flooded paddy, preemergence weed control; format: in vivo, L.; conditions: rated 3-4 weeks after treatment, 0-9 rating scale
How it was run: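 Under paddy conditions, seeds or vegetative propagules go into the top 0.5 cm of silt loam; the soil is then flooded to 1.5–3 cm and kept so. Treated pots stay in a greenhouse; response is rated 0-9 visually versus control.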

[10] = tested on: ECHCG (Echinochloa crus-galli); experiment: Postemergence herbicidal evaluation; format: in vivo, (L.) Beau; conditions: postemergence
How it was run: as §1

GALAP (Galium aparine) [11] = experiment: Postemergence herbicidal evaluation; format: in vivo; conditions: postemergence
How it was run: as §1

ORYSAT (Rice, Tebonnet) [12] = experiment: Flooded paddy, post-transplant rice tolerance; format: in vivo, Oryza sativa, (L.) Tebonnet; conditions: flooded paddy, post-transplant rice, rated 3-4 weeks after treatment, 0-9 rating scale
How it was run: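 Seedlings aged ten days are transplanted in pairs into undrained pots of silt loam, which are then flooded to a depth of 1.5 to 3 cm. After herbicide application the pots are kept in a greenhouse with the flood maintained. Plants are rated 0-9 by visual comparison with controls.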

[13] = tested on: GLXMAW (Soybean, Williams); experiment: Postemergence herbicidal evaluation; format: in vivo, Glycine max, (L.) Merr. cv Williams; conditions: postemergence
How it was run: as §1

[14] = tested on: ABUTH (Abutilon theophrasti); experiment: Postemergence herbicidal evaluation; format: in vivo, Medic.; conditions: postemergence
How it was run: as §1

GALAP (Galium aparine) [15] = experiment: Preemergence herbicidal evaluation; format: in vivo; conditions: rated 4-5 weeks after treatment
How it was run: as §2

ORYSAT (Rice, Tebonnet) [16] = experiment: Preemergence herbicidal evaluation; format: in vivo, Oryza sativa, (L.) Tebonnet; conditions: rated 4-5 weeks after treatment
[17] = tested on: ABUTH (Abutilon theophrasti); experiment: Preemergence herbicidal evaluation; format: in vivo, Medic.; conditions: rated 4-5 weeks after treatment
[18] = tested on: TRZAWR (Wheat, Winter, cv Riband); experiment: Preemergence herbicidal evaluation; format: in vivo, Triticum aestivum; conditions: rated 4-5 weeks after treatment
How it was run: as §2

`Cn1c(C(F)(F)F)cc(=O)n(-c2ccc3snc(C4OCC5(CO4)CO5)c3c2)c1=O` (stereo not shown) [Compound 70, 1-methyl-3-(3-spiro[m-dioxane-5,2′-oxiran]-2-yl-1,2-benzisothiazol-5-yl)-6-(trifluoromethyl)uracil] was tested, and the ZEAMX herbicidal rating (ZEAMX (Corn, Field); rate 0.0320 kg/ha) was 6.5, the ZEAMX herbicidal rating (ZEAMX (Corn, Field); rate 0.0620 kg/ha) was 7.0 and the “Preemergence herbicidal rating AMBEL” value ([1]; Rate 0.0620 kg/ha) was 7.0. The “Preemergence herbicidal rating AMBEL” value ([1]; Rate 0.1250 kg/ha) was 9.0, the “Preemergence herbicidal rating CHEAL” value ([2]; Rate 0.0620 kg/ha) was 9.0 and the “Preemergence herbicidal rating CHEAL” value ([2]; Rate 0.1250 kg/ha) was 9.0. For the same molecule, the “Preemergence herbicidal rating CASOB” value ([3]; Rate 0.0620 kg/ha) was 2.0, the “Preemergence herbicidal rating CASOB” value ([3]; Rate 0.1250 kg/ha) was 2.0 and the AMBEL herbicidal rating ([4]; rate 0.0320 kg/ha) was 9.0. It also gave an AMBEL herbicidal rating ([4]; rate 0.0620 kg/ha) of 9.0, a CHEAL herbicidal rating ([5]; rate 0.0320 kg/ha) of 9.0 and a CHEAL herbicidal rating ([5]; rate 0.0620 kg/ha) of 9.0. The CASOB herbicidal rating ([6]; rate 0.0320 kg/ha) was 5.0, the CASOB herbicidal rating ([6]; rate 0.0620 kg/ha) was 5.0 and the ORYSAT herbicidal rating (ORYSAT (Rice, Tebonnet) [7]; rate 0.0320 kg/ha) was 5.0. The ORYSAT herbicidal rating (ORYSAT (Rice, Tebonnet) [7]; rate 0.0620 kg/ha) was 6.0, the “Preemergence herbicidal rating IPOHE” value ([8]; Rate 0.0620 kg/ha) was 4.0 and the “Preemergence herbicidal rating IPOHE” value ([8]; Rate 0.1250 kg/ha) was 7.0. The “herbicidal rating, SAGPY” value ([9]; rate 0.0080 kg/ha) was 0.0, the “herbicidal rating, SAGPY” value ([9]; rate 0.0320 kg/ha) was 0.0 and the “herbicidal rating, SAGPY” value ([9]; rate 0.1250 kg/ha) was 0.0. It also gave an ECHCG herbicidal rating ([10]; rate 0.0320 kg/ha) of 3.0, an ECHCG herbicidal rating ([10]; rate 0.0620 kg/ha) of 4.0 and a GALAP herbicidal rating (GALAP (Galium aparine) [11]; rate 0.0320 kg/ha) of 8.0. For the same molecule, the GALAP herbicidal rating (GALAP (Galium aparine) [11]; rate 0.0620 kg/ha) was 9.0, the “herbicidal rating, ORYSAT (rice tolerance)” value (shortened to “herbicidal rating, ORYSAT”) (ORYSAT (Rice, Tebonnet) [12]; rate 0.0080 kg/ha) was 0.0 and the “herbicidal rating, ORYSAT” value (ORYSAT (Rice, Tebonnet) [12]; rate 0.0320 kg/ha) was 0.0. The “herbicidal rating, ORYSAT” value (ORYSAT (Rice, Tebonnet) [12]; rate 0.1250 kg/ha) was 0.0, the GLXMAW herbicidal rating ([13]; rate 0.0320 kg/ha) was 7.0 and the GLXMAW herbicidal rating ([13]; rate 0.0620 kg/ha) was 8.5. The ABUTH herbicidal rating ([14]; rate 0.0320 kg/ha) was 9.0, the ABUTH herbicidal rating ([14]; rate 0.0620 kg/ha) was 9.0 and the “Preemergence herbicidal rating GALAP” value (GALAP (Galium aparine) [15]; Rate 0.0620 kg/ha) was 7.0. The “Preemergence herbicidal rating GALAP” value (GALAP (Galium aparine) [15]; Rate 0.1250 kg/ha) was 9.0, the “Preemergence herbicidal rating ORYSAT” value (ORYSAT (Rice, Tebonnet) [16]; Rate 0.0620 kg/ha) was 3.0 and the “Preemergence herbicidal rating ORYSAT” value (ORYSAT (Rice, Tebonnet) [16]; Rate 0.1250 kg/ha) was 6.0. For the same molecule, the “Preemergence herbicidal rating ABUTH” value ([17]; Rate 0.0620 kg/ha) was 9.0, the “Preemergence herbicidal rating ABUTH” value ([17]; Rate 0.1250 kg/ha) was 9.0 and the “Preemergence herbicidal rating TRZAWR” value ([18]; Rate 0.0620 kg/ha) was 3.0. The “Preemergence herbicidal rating TRZAWR” value ([18]; Rate 0.1250 kg/ha) was 7.0.
